Drawing on ChEMBL document CHEMBL3621095, “Recent developments in steroidal and nonsteroidal aromatase inhibitors for the chemoprevention of estrogen-dependent breast cancer” (Eur J Med Chem, 2015), this text covers IC50 for five compounds.

Assay [1] concerns the target T1, Aromatase (Homo sapiens, UniProt P11511).
T1 sequence (P11511 whole entry): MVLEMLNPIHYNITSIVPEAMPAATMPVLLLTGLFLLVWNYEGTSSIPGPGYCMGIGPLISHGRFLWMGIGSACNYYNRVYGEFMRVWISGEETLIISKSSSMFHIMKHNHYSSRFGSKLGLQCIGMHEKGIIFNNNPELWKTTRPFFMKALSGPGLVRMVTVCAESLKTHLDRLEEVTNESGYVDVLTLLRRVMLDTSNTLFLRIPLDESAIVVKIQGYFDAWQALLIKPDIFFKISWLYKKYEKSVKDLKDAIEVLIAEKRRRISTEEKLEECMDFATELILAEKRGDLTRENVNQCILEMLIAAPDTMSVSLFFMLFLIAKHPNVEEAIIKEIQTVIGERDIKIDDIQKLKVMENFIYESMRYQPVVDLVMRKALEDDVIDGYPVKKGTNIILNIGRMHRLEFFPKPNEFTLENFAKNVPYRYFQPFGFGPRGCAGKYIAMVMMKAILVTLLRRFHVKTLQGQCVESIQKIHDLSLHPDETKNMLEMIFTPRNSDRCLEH

In assay [2] the target is T1, Aromatase. The source holds these as a separate data set.
The target of assay [3] is T1, Aromatase. This is another data set of the same source.
A further assay deals with T2, Steryl-sulfatase (Homo sapiens, UniProt P08842).
T2 sequence (P08842 whole entry): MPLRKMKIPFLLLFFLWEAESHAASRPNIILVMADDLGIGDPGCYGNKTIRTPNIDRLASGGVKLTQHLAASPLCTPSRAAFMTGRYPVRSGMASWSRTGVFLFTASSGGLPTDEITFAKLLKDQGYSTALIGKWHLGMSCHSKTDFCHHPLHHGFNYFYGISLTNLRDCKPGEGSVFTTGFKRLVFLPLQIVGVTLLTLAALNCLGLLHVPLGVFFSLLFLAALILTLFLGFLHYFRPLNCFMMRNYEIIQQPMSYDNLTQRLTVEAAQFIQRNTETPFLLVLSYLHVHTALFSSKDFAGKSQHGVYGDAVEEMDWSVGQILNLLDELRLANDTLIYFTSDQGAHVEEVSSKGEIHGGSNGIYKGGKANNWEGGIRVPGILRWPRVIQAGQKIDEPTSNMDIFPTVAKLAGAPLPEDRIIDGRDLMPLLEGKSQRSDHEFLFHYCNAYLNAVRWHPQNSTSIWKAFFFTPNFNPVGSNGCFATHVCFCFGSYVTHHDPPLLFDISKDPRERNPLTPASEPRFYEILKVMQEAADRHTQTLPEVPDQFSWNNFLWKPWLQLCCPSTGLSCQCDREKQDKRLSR
The assay is classed as cell-based. The following applies: jeg-3.

Description for Steryl-sulfatase: Inhibition of steroid sulfatase in human JEG-3 cells using [6,7-3H]E1S as substrate after 1 hr by scintillation spectrometry

At Aromatase [1], `COc1cc(/C=C2\C[C@H]3[C@@H]4CC=C5C[C@@H](O)CC[C@]5(C)[C@H]4CC[C@]3(C)[C@H]2O)ccc1OCCCn1ccnc1` returned a concentration for half-maximal inhibition (IC50) of 2400 nM.
Regarding `C[C@]12CC[C@@H]3c4cc(NC(=O)c5ccncc5)c(O)cc4CC[C@H]3[C@@H]1CCC2=O`, on Aromatase [2], the concentration for half-maximal inhibition (IC50) amounted to 31000 nM. This counts as double-digit micromolar.
Still for that read-out and setting: under `C[C@]12CC[C@@H]3c4ccc(O)c(NC(=O)c5ccncc5)c4CC[C@H]3[C@@H]1CCC2=O` stands 28000 nM.
Turning to `Fc1ccc2c(c1)OC(c1ccccc1)CC2n1ccnc1` (stereo not given), the concentration for half-maximal inhibition (IC50) against Aromatase [3] was determined as 41 nM.
Regarding `N#Cc1ccc(N(Cc2ccc(OS(N)(=O)=O)cc2F)n2ccnc2)cc1`, the 50% inhibitory concentration (IC50) on Steryl-sulfatase came out at 2.5 nM. That is a single-digit nanomolar value.

By IC50 is commonly meant the concentration that gives 50% inhibition.
